# From patent US12208122B2, “Methods of treating bleeding in a subject treated with an antiplatelet agent” (Cellphire, Inc., priority 2019, dated 2025)
# Like-named read-outs stand apart in the source and are kept apart here. Where a SMILES comes first, the peptide text is derived from it. Bridges are numbered along the chain shown (N, C = ends). [ ]: non-standard residue; d: D form. hArg = N=C(N)NCCCC[C@H](N)C(=O)O; Mpa = O=C(O)CCS
# How the values were obtained:
# [1] = test system: platelets (platelet rich plasma); assay: Transmission light aggregometry, collagen-induced platelet aggregation in PRP; assay type: cell-based, human
# Description: The aggregation of platelets (in platelet rich plasma) was evaluated using transmission light aggregrometry. […] (FIG. 8).
# (§1) Platelets will aggregate with collagen and arachidonic acid stimulation. […] The PL chip system on the T-TAS® was used to emulate in vitro platelet binding and aggregation due to the exposure of collagen in the vasculature under shear conditions.
# (§2) Plasma samples with platelet or thrombosomes or combination of both are loaded into cuvettes and placed into the aggregometry chambers. The chambers warm the sample and provide constant stirring. The initiation of aggregation can be done by multiple types of […] agents not limited to thrombin, ADP, collagen and any agent known to stimulate platelet aggregation. The samples can also have been taken as ex-vivo, or in-vitro supplemented with inhibitors. The instrument begins the assay by first recording the light transmission previous to stimulation for 2 minutes. The stimulant of interest is then introduced by the technician and the change in light transmission is recorded over time. The increase in light transmission corresponds to increase in platelet aggregation.
# [2] = test system: platelets (platelet rich plasma); assay: Transmission light aggregometry, arachidonic acid-induced platelet aggregation in PRP; assay type: cell-based, human
# Source text: as §1
# as §2, with “The samples can also have been taken as ex-vivo, or in-vitro supplemented with inhibitors.” left out
# Platelet rich plasma was taken from subject on 800 mg ibuprofen.
# [3] = test system: whole blood; assay: T-TAS PL chip (collagen only) thrombus formation, whole blood; assay type: cell-based, human; conditions: whole blood with 100 and 500 μM aspirin; FIG. 17
# Source text: (§3) In the Total Thrombus-formation Analysis System (T-TAS®, FUJIMORI KOGYO CO., LTD), the sample is forced through collagen-coated microchannels using mineral oil. Changes in pressure are used to assess thrombus formation. The Occlusion Start Time is time it takes to reach 10 kPa, and the Occlusion Time=time it takes to each Δ80 kPa using an AR chip (e.g., Zacros Item No, TC0101). According to the manufacturer, an AR chip can be used for analyzing the formation of a mixed white thrombus consisting chiefly of fibrin and activated platelets. It has a flow path (300 μm wide by 50 μm high) coated with collagen and tissue factors and can be used to analyze the clotting function and platelet function. In comparison, a PL chip can be used for analyzing the formation of a platelet thrombus consisting chiefly of activated platelets. A PL chip has a flow path coated with collagen only and can be used to analyze the platelet function.
# as §1
# Evaluation by T-TAS® Using a PL Chip
# PL chips are run similarly to AR chips, but this chip is only coated with collagen alone.
# [4] = test system: platelet rich plasma; assay: T-TAS AR chip (collagen and tissue factor) occlusion under shear, platelet rich plasma; assay type: cell-based, human
# [5] = test system: platelets (platelet rich plasma); assay: Transmission light aggregometry, ADP-induced platelet aggregation in PRP; assay type: cell-based, human; conditions: cangrelor 0.5 μM-3.5 μM, 10 μM ADP, FIG. 1
# Source text: as §2
# [6] = test system: platelet rich plasma; assay: T-TAS AR chip (collagen and tissue factor) occlusion under shear, platelet rich plasma; assay type: cell-based, human; conditions: for area under the curve (AUC): FIG. 3; for time to occlusion: FIG. 4
# Source text: as §3
# The effect of cangrelor on platelet occlusion under shear was evaluated by T-TAS®.
# Evaluation by T-TAS® using an AR chip. AR chips are characterized by a single channel containing collagen and tissue factor; they can be used to analyze clotting and platelet function.
# [7] = test system: NOD/SCID mice; assay: Tail-snip bleed model in clopidogrel-treated NOD/SCID mice; assay type: in vivo, mouse; conditions: ~3 times the clinical dose of clopidogrel for 5 days (untreated 9 minutes)
# Description: The mouse was treated with clopidogrel for 5 days. The mouse was anesthetized, the tail end was snipped off followed by thrombosomes being immediately administered. The time from tail snip to tail stop bleeding was recorded by visual inspection.
# NOD/SCID mice were treated with ˜ 3 times the clinical dose of clopidogrel for 5 days then assessed in the tail-snip bleed model. The bleed time (min) was extended to 17.8 minutes with clopidogrel treatment verses untreated at 9 minutes (data not shown).
# [8] = test system: platelets; conditions: cited from earlier work
# [9] = test system: whole blood; assay: T-TAS AR chip occlusion under shear, whole blood; assay type: cell-based, human; conditions: whole blood with 6 μM eptifibatide (whole blood alone 8 minutes); FIG. 9
# Source text: as §3
# The effect of thrombosomes on shortening clotting times while in the presence of eptifibatide was also studied. The ability of thrombosomes to recover occlusion times was studied on the T-TAS® system. The T-TAS® system measures occlusion time under shear forces with collagen and thromboplastin stimulation. The whole blood profile of occlusion and AUC on the AR T-TAS® chip lengthened and decreased, respectively, with eptifibatide. […]
smiles,measurement,setting,value
"CC(=O)Oc1ccccc1C(=O)O [aspirin, acetylsalicylic acid]",collagen-induced platelet aggregation,"[1]; collagen 10 ug/mL, aspirin 100-400 μM, FIG. 16",partially inhibited
same,arachidonic acid-induced platelet aggregation,"[2]; AA 500 ug/mL, aspirin 100-400 μM, PRP, FIG. 16",completely inhibited
same,platelet binding and aggregation on collagen under shear (PL chip),[3],largely limited
same,occlusion on T-TAS flow system,"[4]; PRP taken from a subject on 81 mg/day aspirin, FIGS. 29A, 29B",failed to occlude
CSCCNc1nc(SCCC(F)(F)F)nc2c1ncn2[C@@H]1O[C@H](COP(=O)(O)OP(=O)(O)C(Cl)(Cl)P(=O)(O)O)[C@@H](O)[C@H]1O [cangrelor],ADP-induced platelet aggregation (integrated aggregation curve),[5],complete inhibition
same,occlusion time,"[6]; PRP treated with 100 ng/mL cangrelor and ADP (from 19), FIGS. 25A, 25B",26 min
same,platelet adhesion and occlusion on AR chip,"[6]; cangrelor 1 μM combined with ADP 10 μM, PRP, FIG. 2",essentially eliminated
same,platelet occlusion on AR chip,"[6]; cangrelor alone 1 μM, PRP, FIG. 2",did not exhibit inhibition on occlusion
same,area under the curve (AUC),"[6]; cangrelor alone, PRP",little effect on AUC value
same,time to occlusion,"[6]; cangrelor alone, PRP",little effect on occlusion times
same,area under the curve (AUC),"[6]; cangrelor combined with ADP stimulation, PRP",dropped close to zero
same,time to occlusion,"[6]; cangrelor plus ADP stimulation, PRP",inhibited occlusion essentially completely
COC(=O)[C@H](c1ccccc1Cl)N1CCc2sccc2C1 [clopidogrel],bleed time,[7],17.8 min
same,time to return of platelet function,[8]; after stopping infusion,approximately 1 hour
N=C(N)NCCCC[C@@H]1NC(=O)CCSSC[C@@H](C(N)=O)NC(=O)[C@@H]2CCCN2C(=O)[C@H](Cc2c[nH]c3ccccc23)NC(=O)[C@H](CC(=O)O)NC(=O)CNC1=O [eptifibatide] ([Mpa][hArg]GDWPC-NH2; disulfide 1-7),collagen-induced platelet aggregation,"[1]; collagen 10 μg/mL, all eptifibatide concentrations tested, FIG. 8",completely inhibited
same,occlusion time,[9],16 min
same,occlusion time,"[4]; PRP treated with 9 μM eptifibatide (from 18.43), FIGS. 27A, 27B",over 30 minutes
same,time for bleeding time to return to normal after drug stoppage,[8]; after drug stoppage,≤ 1 h
CC(C)Cc1ccc(C(C)C(=O)O)cc1 (centres unmarked) [ibuprofen],aggregation in response to arachidonic acid,"[2]; PRP from subject on 800 mg ibuprofen, FIG. 31A",lack of aggregation
same,occlusion on T-TAS flow system,"[4]; PRP from subject on 800 mg ibuprofen, addition of ADP, FIG. 31B",abolished occlusion
same,occlusion on T-TAS flow system,"[4]; PRP from subject on 800 mg ibuprofen, no ADP, FIG. 31B",demonstrated occlusion
CCCSc1nc(N[C@@H]2C[C@H]2c2ccc(F)c(F)c2)c2nnn([C@@H]3C[C@H](OCCO)[C@@H](O)[C@H]3O)c2n1 [ticagrelor],time to return of platelet function,[8]; after the last dosage,approximately 72 hours
CCCCS(=O)(=O)N[C@@H](Cc1ccc(OCCCCC2CCNCC2)cc1)C(=O)O [tirofiban],occlusion time,"[4]; PRP treated with 100 ng/mL tirofiban (from 18.43), FIGS. 26A, 26B",no occlusion
